Results reported in patent publication US11857535B2, “Methods of treating mutant lymphomas” (Kymera Therapeutics, Inc., priority 2020, dated 2024).

Test system: OCI-LY10 tumor xenographs
Assay: OCI-Ly10 xenograph tumor study (tumor volume, TGI, responses)
Format: in vivo, mouse
Parameters: key to TGI (D14): TGI % = (1−T/C)×100
Conditions: for TGI (28D): TGI=(1-T/C)100
Experimental: Cell Culture: The OCI-LY10 tumor cells were maintained as suspension in RPMI1640 medium supplemented with 10% fetal bovine serum, 100 U/mL penicillin and 100 μg/mL streptomycin at 37° C. in an atmosphere of 5% CO2 in air. The tumor cells were routinely subcultured twice weekly by trypsin-EDTA treatment. The cells growing in an exponential growth phase were harvested and counted for tumor inoculation.
Animals: C.B. 17 SCID, female, 6-8 weeks, weighing approximately 16-18 g were used. Animals were housed and maintained according to IACUC protocols.
Tumor Inoculation: Each mouse was inoculated subcutaneously at the right flank with OCI-LY10 tumor cells (10×10^6) in 0.2 mL of PBS with matrigel for tumor development. The treatments were started when the tumor sizes reached approximately 150-450 mm^3 for the studies.
Assignment to Groups: Before commencement of treatment, all animals were weighed and the tumor volumes were measured. Since the tumor volume can affect the compound PK/PD, mice are assigned into groups using an Excel-based randomization procedure performing stratified randomization based upon their tumor volumes.
Observation: After tumor inoculation, the animals were checked daily for morbidity and mortality. During routine monitoring, the animals were checked for any effects of tumor growth and treatments on behavior such as mobility, food and water consumption, body weight gain/loss, eye/hair matting and any other abnormalities. Mortality and observed clinical signs were recorded for individual animals in detail.
Data Collection: Tumor volumes were measured in two dimensions using a caliper, and the volumes were expressed in mm^3 using the formula: ″V=(L×W×W)/2, where V is tumor volume, L is tumor length (the longest tumor dimension) and W is tumor width (the longest tumor dimension perpendicular to L).
TGI (tumor growth inhibition)=(1−T/C)100; PR (partial response)≥50% tumor shrinkage; CR (complete response)>95% tumor shrinkage from starting volume

[1] = 10 mg/kg PO, D1-7 (line noted BENCHMARK)
[2] = 10 mg/kg PO, D1-7 (second line of this schedule)

CC(C)(O)c1cc2nc([C@H]3CC[C@H](CN4CC5(CC(CCNc6cccc7c6C(=O)N(C6CCC(=O)NC6=O)C7=O)C5)C4)CC3)sc2cc1NC(=O)c1cccc(C(F)(F)F)n1 (some centres unmarked) [Compound A, N-(2-((1r,4r)-4-((6-(2-((2-(2,6-dioxopiperidin-3-yl)-1,3-dioxoisoindolin-4-yl)amino)ethyl)-2-azaspiro[3.3]heptan-2-yl)methyl)cyclohexyl)-5-(2-hydroxypropan-2-yl)benzo[d]thiazol-6-yl)-6-(trifluoromethyl)picolinamide]
PR (partial response), animals (3 mg/kg IV, D1, 2, 8, 9): 3 | TGI (D14) (3 mg/kg IV, D1, 2, 8, 9): 89 | PR (partial response), animals (3 mg/kg IV, D1, 4, 8, 11): 3 | TGI (D14) (3 mg/kg IV, D1, 4, 8, 11): 89 | PD (progressive disease), animals (5 mg/kg PO, D1-4, 15-18): 1 | TGI (D14) (5 mg/kg PO, D1-4, 15-18): 62 | Notes (5 mg/kg PO, D1-4, 15-18, note continues 'D14'): All tumors growing after | PR (partial response), animals (5 mg/kg PO, D1-7): 2 | TGI (D14) (5 mg/kg PO, D1-7): 75 | Notes (5 mg/kg PO, D1-7, note continues 'D14'): All tumors growing after | PR (partial response), animals (6 mg/kg IV, D1, 2, 8, 9): 5 | TGI (D14) (6 mg/kg IV, D1, 2, 8, 9): 94 | PR (partial response), animals (10 mg/kg PO, D1, 2, 8, 9): 2 | TGI (D14) (10 mg/kg PO, D1, 2, 8, 9): 88 | Notes (10 mg/kg PO, D1, 2, 8, 9, note continues 'and continue trending down'): All show tumor regression | PR (partial response), animals (10 mg/kg PO, D1, 4, 8, 11): 5 | TGI (D14) (10 mg/kg PO, D1, 4, 8, 11): 85 | Notes: PR on D18, animals (10 mg/kg PO, D1, 4, 8, 11, D18): 6 | Notes: near PR on D18, animals (10 mg/kg PO, D1, 4, 8, 11, D18): 1 | PD (progressive disease), animals (10 mg/kg PO, D1-3): 1 | PR (partial response), animals (10 mg/kg PO, D1-3): 5 | TGI (D14) (10 mg/kg PO, D1-3): 82 | Notes (10 mg/kg PO, D1-3, note continues 'regression'): All SD show some | PR (partial response), animals (10 mg/kg PO, D1-4, 15-18): 7 | TGI (D14) (10 mg/kg PO, D1-4, 15-18): 87 | Notes (10 mg/kg PO, D1-4, 15-18, note continues 'significantly from D10'): All tumors shrank | CR (complete response), animals [1]: 1 | PR (partial response), animals [1]: 6 | TGI (D14) [1]: 96 | CR (complete response), animals [2]: 1 | PR (partial response), animals [2]: 6 | TGI (D14) [2]: 97 | PR (partial response), animals (12 mg/kg IV, D1, 8): 5 | TGI (D14) (12 mg/kg IV, D1, 8): 94 | Notes (12 mg/kg IV, D1, 8,, note continues 'and continue trending down'): All show tumor regression | PR (partial response), animals (15 mg/kg PO, D1, 2, 8, 9): 7 | TGI (D14) (15 mg/kg PO, D1, 2, 8, 9): 91 | Notes (15 mg/kg PO, D1, 2, 8, 9, note continues 'significantly from D10'): Very Active: Tumors shrank | Notes: tumors growing slightly (15 mg/kg PO, D1, 8, 15): 2/5 are growing slightly | Notes: tumors with some regression (15 mg/kg PO, D1, 8, 15): 3/5 show some regression; | TGI (D14) (15 mg/kg PO, D1, 8, 15): 83 | CR (complete response), animals (20 mg/kg PO, D1-3): 1 | PR (partial response), animals (20 mg/kg PO, D1-3): 6 | TGI (D14) (20 mg/kg PO, D1-3): 96 | CR (complete response), animals (30 mg/kg PO, D1,2): 4 | PR (partial response), animals (30 mg/kg PO, D1,2): 3 | TGI (D14) (30 mg/kg PO, D1,2): 99 | Notes: CR by D18, animals (30 mg/kg PO, D1,2, D18): 6 CR by D18 | CR (complete response), animals (30 mg/kg PO, D1, 4, 8): 3 | PR (partial response), animals (30 mg/kg PO, D1, 4, 8): 4 | TGI (D14) (30 mg/kg PO, D1, 4, 8): 97 | Notes: CR at D18, animals (30 mg/kg PO, D1, 4, 8, D18): 5 | Notes: PR at D18, animals (30 mg/kg PO, D1, 4, 8, D18): 2 | Notes (30 mg/kg PO, D1, 4, 8, at D18): Tumors continue to regress | CR (complete response), animals (30 mg/kg PO, D1, 8, 15): 2 | PR (partial response), animals (30 mg/kg PO, D1, 8, 15): 5 | TGI (D14) (30 mg/kg PO, D1, 8, 15): 96 | CR (complete response), animals (30 mg/kg PO, D1-3): 4 | PR (partial response), animals (30 mg/kg PO, D1-3): 3 | TGI (D14) (30 mg/kg PO, D1-3): 99 | Notes: CR by D18, animals (30 mg/kg PO, D1-3, D18): 7 CR by D18 | CR (complete response), animals (45 mg/kg PO, D1,2): 4 | PR (partial response), animals (45 mg/kg PO, D1,2): 3 | TGI (D14) (45 mg/kg PO, D1,2): 99 | Notes: CR by D18, animals (45 mg/kg PO, D1,2, D18): 7 CR by D18 | CR (complete response), animals (60 mg/kg PO, D1): 2 | PR (partial response), animals (60 mg/kg PO, D1): 5 | TGI (D14) (60 mg/kg PO, D1): 97 | tumor response in OCI-Ly10 xenographs (3 mpk x 21 d): regressions | PR (partial response), animals (3 mpk, PR ≥50% tumor shrinkage): 4 | TGI (28D) (3 mpk): 91% | CR (complete response), animals (10 mpk, CR >95% tumor shrinkage from starting volume): 5CR | TGI (28D) (10 mpk): 99.9% | CR (complete response), animals (30 mpk, CR >95% tumor shrinkage from starting volume): 5CR | TGI (28D) (30 mpk): 99.9% | regressions compared with Compound B (OCI-Ly10 tumor xenographs, FIG. 2): more potent regressions than Compound B | IV versus PO activity (QW and BIW schedules, FIG. 3): equally active | Efficacy, IV versus PO (comparison of both routes of administration): Efficacy is equivalent between both ROA | tumor response on intermittent schedule (dosed BIW every 3 weeks, FIG. 3): induces regression | tumor response in OCI-Ly10 xenographs (higher doses (>10 mpk)): more rapid and complete regressions | Activity (class of schedule) (mg/kg: 5 PO D1-4,15-18, 5 PO D1-7, 15 PO D1,8,15): Insufficient | Activity (class of schedule) (mg/kg: 10 PO D1,2,8,9, 3 IV D1,2,8,9, 3 IV D1,4,8,11, 10 PO D1-3, 10 PO D1,4,8,11, 10 PO D1-4,15-18, 15 PO D1,2,8,9, 6 IV D1,2,8,9, 12 IV D1,8): Minimal | Activity (class of schedule) (mg/kg: 30 PO D1,8,15, 10 PO D1-7, 20 PO D1-3, 60 PO D1, 30 PO D1,4,8, 30 PO D1,2, 30 PO D1-3, 45 PO D1,2): Optimal
